# Assay results taken from ChEMBL document CHEMBL4808209 (J Med Chem, 2021).
# How the values were obtained:
# [1] = tested on: Neuronal acetylcholine receptor; assay: Inhibition of neuronal nicotinic receptor (unknown origin) at 0.1 to 1 uM; type: protein-complex assay; conditions: human, dose 0.1-1 µM
# [2] = Oral bioavailability in Sprague-Dawley rat at 2 mg/kg administered as cassette dose measured after 24 hrs; type: ADME, organism-based; conditions: in vivo
# [3] = Clearance in Sprague-Dawley rat at 2 mg/kg, po or 1 mg/kg, iv administered as cassette dose measured after 24 hrs relative to hepatic blood flow; type: ADME, organism-based; conditions: in vivo
# hERG (KCNH2) = hERG (KCNH2) (Homo sapiens, UniProt Q12809); assay: Inhibition of human ERG at 5 uM by patch clamp method relative to control
# [4] = target: Delta-type opioid receptor (Homo sapiens, UniProt P41143); assay: Inhibition of human delta opioid receptor at 0.1 to 1 uM; conditions: dose 0.1-1 µM
# [5] = target: Sodium-dependent serotonin transporter (Homo sapiens, UniProt P31645); assay: Inhibition of serotonin transporter (unknown origin) at 0.1 to 1 uM; type: ADME; conditions: dose 0.1-1 µM
# [6] = target: Voltage-gated L-type calcium channel (Homo sapiens, UniProt Q13936+Q13698+Q01668+O60840); assay: Inhibition of calcium channel, Type L (unknown origin) at 0.1 to 1 uM; type: protein assay; conditions: dose 0.1-1 µM
# [7] = target: Alpha-1A adrenergic receptor (Homo sapiens, UniProt P35348); assay: Inhibition of adrenergic alpha 1A receptor (unknown origin) at 0.1 to 1 uM; conditions: dose 0.1-1 µM
# [8] = target: cGMP-specific 3',5'-cyclic phosphodiesterase (Homo sapiens, UniProt O76074); assay: Inhibition of human PDE5A1 at 0.1 to 1 uM; conditions: dose 0.1-1 µM
# [9] = Inhibition of human adenosine transporter at 0.1 to 1 uM; type: ADME; conditions: dose 0.1-1 µM
# CYP2B6 = CYP2B6 (Homo sapiens, UniProt P20813); assay: Inhibition of CYP2B6 in human liver microsomes using bupropion as substrate substrate in presence of NADPH by LC-MS/MS analysis; type: ADME; conditions: probe bupropion
# [10] = Volume of distribution in Beagle dog at 1 mg/kg, iv measured after 24 hrs; type: ADME, organism-based, Canis lupus familiaris; conditions: in vivo, read-out: Vdss
# Alpha-1A adrenergic receptor, sequence (P35348 whole entry): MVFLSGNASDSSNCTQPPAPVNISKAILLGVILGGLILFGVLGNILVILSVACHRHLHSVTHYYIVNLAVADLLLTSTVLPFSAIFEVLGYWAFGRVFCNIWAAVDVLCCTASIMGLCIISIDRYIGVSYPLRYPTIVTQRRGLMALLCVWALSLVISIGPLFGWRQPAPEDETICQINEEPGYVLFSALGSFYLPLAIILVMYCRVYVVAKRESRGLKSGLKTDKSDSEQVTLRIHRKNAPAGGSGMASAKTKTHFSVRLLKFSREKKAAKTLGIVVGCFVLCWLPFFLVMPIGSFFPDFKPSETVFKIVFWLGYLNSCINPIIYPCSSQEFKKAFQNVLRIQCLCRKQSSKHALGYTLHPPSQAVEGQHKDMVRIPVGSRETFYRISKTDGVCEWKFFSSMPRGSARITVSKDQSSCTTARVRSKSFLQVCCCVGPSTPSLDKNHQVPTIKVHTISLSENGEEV
# CYP2B6, sequence (P20813 whole entry): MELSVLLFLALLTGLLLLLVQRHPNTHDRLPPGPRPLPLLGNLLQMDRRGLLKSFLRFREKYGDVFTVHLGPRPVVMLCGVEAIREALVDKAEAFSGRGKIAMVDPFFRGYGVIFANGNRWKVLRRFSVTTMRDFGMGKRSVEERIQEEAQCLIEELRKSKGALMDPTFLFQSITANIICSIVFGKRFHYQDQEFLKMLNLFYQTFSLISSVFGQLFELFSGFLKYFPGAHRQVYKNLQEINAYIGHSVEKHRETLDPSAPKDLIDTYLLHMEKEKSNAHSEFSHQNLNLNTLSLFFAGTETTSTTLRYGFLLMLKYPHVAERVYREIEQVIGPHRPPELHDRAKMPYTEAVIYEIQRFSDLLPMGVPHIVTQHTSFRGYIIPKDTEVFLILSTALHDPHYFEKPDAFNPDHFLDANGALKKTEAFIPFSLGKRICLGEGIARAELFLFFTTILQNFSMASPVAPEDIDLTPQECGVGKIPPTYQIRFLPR
# Sodium-dependent serotonin transporter, sequence (P31645 whole entry): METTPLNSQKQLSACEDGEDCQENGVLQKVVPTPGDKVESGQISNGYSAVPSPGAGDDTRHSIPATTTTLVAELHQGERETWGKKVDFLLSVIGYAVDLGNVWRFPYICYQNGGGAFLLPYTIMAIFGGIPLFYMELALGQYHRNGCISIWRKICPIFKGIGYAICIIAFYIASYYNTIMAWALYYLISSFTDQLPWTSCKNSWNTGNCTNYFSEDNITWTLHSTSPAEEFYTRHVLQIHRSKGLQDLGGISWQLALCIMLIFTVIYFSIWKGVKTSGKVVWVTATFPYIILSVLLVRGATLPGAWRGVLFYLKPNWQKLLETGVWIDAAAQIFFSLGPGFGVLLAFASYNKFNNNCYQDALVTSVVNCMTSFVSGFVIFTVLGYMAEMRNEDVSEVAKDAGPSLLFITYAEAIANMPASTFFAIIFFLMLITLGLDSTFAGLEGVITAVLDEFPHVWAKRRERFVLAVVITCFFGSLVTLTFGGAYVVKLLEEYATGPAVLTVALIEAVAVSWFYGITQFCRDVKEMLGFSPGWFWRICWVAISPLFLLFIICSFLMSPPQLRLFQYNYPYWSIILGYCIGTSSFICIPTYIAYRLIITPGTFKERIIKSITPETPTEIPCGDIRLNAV
# hERG (KCNH2), sequence (Q12809 whole entry): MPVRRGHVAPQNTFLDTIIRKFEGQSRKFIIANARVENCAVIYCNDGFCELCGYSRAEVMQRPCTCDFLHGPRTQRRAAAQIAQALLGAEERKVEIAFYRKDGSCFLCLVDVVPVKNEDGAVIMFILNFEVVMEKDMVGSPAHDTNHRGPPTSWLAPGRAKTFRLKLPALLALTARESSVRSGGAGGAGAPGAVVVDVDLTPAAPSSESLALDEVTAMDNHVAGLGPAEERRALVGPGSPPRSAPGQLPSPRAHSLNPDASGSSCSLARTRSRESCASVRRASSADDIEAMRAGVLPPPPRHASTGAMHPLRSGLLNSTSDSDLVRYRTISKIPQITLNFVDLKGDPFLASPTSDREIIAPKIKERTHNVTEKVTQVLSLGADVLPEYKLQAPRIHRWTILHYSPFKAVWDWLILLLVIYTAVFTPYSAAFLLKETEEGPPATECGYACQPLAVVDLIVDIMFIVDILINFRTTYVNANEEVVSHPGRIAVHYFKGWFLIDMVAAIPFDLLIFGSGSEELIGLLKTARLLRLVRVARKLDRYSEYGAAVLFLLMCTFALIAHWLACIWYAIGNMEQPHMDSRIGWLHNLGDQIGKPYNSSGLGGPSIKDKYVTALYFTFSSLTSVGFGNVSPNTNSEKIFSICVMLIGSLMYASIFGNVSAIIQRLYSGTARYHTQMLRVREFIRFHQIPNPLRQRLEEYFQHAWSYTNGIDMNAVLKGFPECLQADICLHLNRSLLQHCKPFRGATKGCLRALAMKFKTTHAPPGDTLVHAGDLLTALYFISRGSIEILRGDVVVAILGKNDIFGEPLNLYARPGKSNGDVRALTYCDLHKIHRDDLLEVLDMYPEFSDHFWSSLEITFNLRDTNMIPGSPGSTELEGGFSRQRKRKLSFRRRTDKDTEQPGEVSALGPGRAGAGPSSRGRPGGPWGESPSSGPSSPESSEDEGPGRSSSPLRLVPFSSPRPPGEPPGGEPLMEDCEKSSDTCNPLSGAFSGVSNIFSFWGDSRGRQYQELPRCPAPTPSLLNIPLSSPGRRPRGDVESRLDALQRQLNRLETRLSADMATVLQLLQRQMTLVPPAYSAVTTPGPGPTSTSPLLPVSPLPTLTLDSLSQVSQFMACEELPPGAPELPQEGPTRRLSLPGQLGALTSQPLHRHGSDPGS
# Delta-type opioid receptor, sequence (P41143 whole entry): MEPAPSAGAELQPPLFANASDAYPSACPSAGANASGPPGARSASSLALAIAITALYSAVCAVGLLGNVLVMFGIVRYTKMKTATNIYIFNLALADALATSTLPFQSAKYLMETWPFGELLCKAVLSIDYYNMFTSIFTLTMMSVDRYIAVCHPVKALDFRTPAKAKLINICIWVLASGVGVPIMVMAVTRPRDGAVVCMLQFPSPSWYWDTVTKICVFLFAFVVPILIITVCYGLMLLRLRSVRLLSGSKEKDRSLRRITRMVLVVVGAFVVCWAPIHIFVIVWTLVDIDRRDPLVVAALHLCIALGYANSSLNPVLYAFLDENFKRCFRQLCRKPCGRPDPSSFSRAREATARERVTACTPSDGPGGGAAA
structure (smiles),measurement,setting,value
CCN1C(=O)N(c2c(F)c(OC)cc(OC)c2F)Cc2cnc3[nH]c(CN4CCOCC4)cc3c21 [PEMIGATINIB],inhibition (INH),[1],Not Active
same,bioavailability,[2],> 100%
same,CL,[3],31%
same,inhibition at 5 µM,hERG (KCNH2),9%
same,inhibition (INH),[4],Not Active
same,inhibition (INH),[5],Not Active
same,inhibition (INH),[6],Not Active
same,inhibition (INH),[7],Not Active
same,inhibition (INH),[8],Not Active
same,inhibition (INH),[9],Not Active
same,IC50,CYP2B6,> 25 µM
same,Vd,[10],3.49 L/kg
